Assay results from patent US20190099502A1, “TARGETING THE NEURONAL CALCIUM SENSOR 1 FOR TREATING WOLFRAM SYNDROME” (INSERM (INSTITUT NATIONAL DE LA SANTÉ ET DE LA RECHERCHE …, priority 2016, published 2019).
Where a SMILES comes first, the peptide text is derived from it. The star is where a group is joined. Cbz = O=C(OCc1ccccc1)*

Tested on: NCS1 expression
Assay: Time course immunoblotting of NCS1 in fibroblasts treated with MG-132
Format: cell-based, human
Conditions: 10 μM MG-132, 16 h
Method: Immunoprecipitates were analysed by western blotting with antibodies against Flag and myc. Input represents cell lysate. n=3 independent experiments. (B) Transcript levels of WFS1 were quantified by RT-qPCR in control (C1, C2) and patient fibroblasts (P1, P2). The mRNA levels were normalized with reference gene L27. Error bars: SEM n=6 independent experiments. (C) Immunoblot of lysates from controls (C1, C2) and patient fibroblasts (P1, P2) with NCS1 antibody. GAPDH was used as a loading control. The immunoblot bands were quantified by densitometry, and the NCS1/GAPDH ratios were calculated (n=5 independent experiments). (D) Western analysis and quantification of control fibroblasts transfected with scramble siRNA (siScr) or WFS1 siRNA (siWFS1). WFS1 and NCS1 protein expression were analysed 72 h post-siRNA transfection. Data are represented as mean ±SEM from n=7 independent experiments *p<0.05, using Mann Whitney test. […]
GAPDH was used as a loading control. Quantification of NCS1 expression level after 16 h of MG-132 treatment normalized to GAPDH is shown. […]
To investigate NCS1 functions in WS, we took advantage of WFS1-null patient fibroblasts. […] We first examined the expression of WFS1 using quantitative PCR and western blot. […] Then, we analysed NCS1 mRNA and protein expression in patient cells. […]

CC(C)C[C@@H](C=O)NC(=O)[C@H](CC(C)C)NC(=O)[C@H](CC(C)C)NC(=O)OCc1ccccc1 [MG-132] (Cbz-Leu-Leu-Leu-aldehyde)
effect on NCS1 expression (control cells): ineffective
increase in NCS1 expression (patient fibroblasts, normalized to GAPDH): two-fold
